# Experimental data from publication PMC12010006, “Subnanomolar MAS-related G protein-coupled receptor-X2/B2 antagonists with efficacy in human mast cells and disease models” (Signal Transduction and Targeted Therapy, 2025).
# Entries after “also recorded” stand apart in the source; their conditions may differ.
# Tests used:
# [1] = system: C48/80-induced hind paw edema; experiment: Local allergic reaction (hind paw edema); type: in vivo, mouse; conditions: 50 mg/kg b.w., i.p.; C48/80 20 µL of 30 µg/mL into right hind paw; listed as PSB-172656
# Experimental: PSB-172656 was further investigated in a mouse model of skin inflammation,[54] determining its effects on C48/80-induced hind paw edema. […] These findings indicate a strong anti-inflammatory effect of the MRGPRX2/B2 antagonist in this mouse model. Mice were given the antagonist PSB-172656 intraperitoneally at a dose of 50 mg/kg b.w. or vehicle (2% DMSO). The volume of the paws (both right (test) and left (control)) was measured using a plethysmometer (7140, UgoBasile, Italy). After 30 min, 20 µL of C48/80 (30 µg/mL) were injected into the right paw and 20 µL of 0.9% NaCl into the left paw. After 15 min, paw thickness was measured again. Mice were then killed by dislocation of cervical vertebrae. The mouse model has been described previously.[54],[69]
# [2] = MTT cytotoxicity assay, 1321N1 astrocytoma cells; type: cell-based; conditions: human
# Experimental: Potential cytotoxicity of 24 and its similarly potent analogs 27 and 30 was assessed in 3-(4,5-dimethylthiazol-2-yl)-2,5-diphenyl-2H-tetrazolium bromide (MTT) assays performed on human 1321N1 astrocytoma cells (Supplementary Table S3). This cell line was chosen since it is well-established for the screening of cytotoxic drugs, making it a reliable choice for assessing cytotoxicity.[46]
# For the experiment, 1321N1 astrocytoma cells were seeded at a density of 1 × 10^5 cells/well in 180 µL of cell medium into transparent 96-well plates, whereby the outer wells only contained buffer (to avoid an edge effect). Cells were incubated for 24 h at 37°C, 5% CO2. Compound dilutions were prepared in DMSO. […] Subsequently, 20 µL of these compound dilutions were added to each well so that astrocytoma cells were incubated with varying concentrations of MRGPRX2 antagonists (0.01 µM–10 µM) at 37° C, 5% CO2. 5-Fluoruracil, a cytostatic drug, served as a positive control. Medium-containing DMSO in the absence of a compound served as a negative control. After 71 h, […] of MTT solution (5 mg/mL, prepared in Millipore water) was added to each well (final concentration 0.5 mg/mL) and cells were incubated again for another hour. Subsequently, the medium was removed, and cells were lyzed by adding 100 µL of DMSO per well. In order to dissolve the produced formazan dye crystals, plates were incubated for 2 min on a rotary shaker (150 rpm). Afterward, the UV absorbance at 570 nm was measured by using SoftMax® Pro5.1 Microplate Data Acquisition & Analysis Software (Molecular Devices, Sunnyvale, CA, USA). The UV absorbance at 690 nm was measured directly afterward to eliminate the background absorbance of residual medium and cell components. The values of the measured UV absorbance at 690 nm were subtracted from the values obtained by the measurement of UV absorbance at 570 nm. Three to four independent experiments were performed, each in triplicate.
# mouse MRGPRB2 = target: T1, mouse MRGPRB2 (Mus musculus, UniProt Q3KNA1); experiment: Ca2+ assay, 1321N1 astrocytoma cells expressing MRGPRB2; type: cell-based
# T1 construct: expressed in transfected cells; host or cells: 1321N1 astrocytoma cells; plasmid pLVX-IRES-MRGPRB2-mCherry (Addgene #213961)
# T1 sequence (Q3KNA1 1-338): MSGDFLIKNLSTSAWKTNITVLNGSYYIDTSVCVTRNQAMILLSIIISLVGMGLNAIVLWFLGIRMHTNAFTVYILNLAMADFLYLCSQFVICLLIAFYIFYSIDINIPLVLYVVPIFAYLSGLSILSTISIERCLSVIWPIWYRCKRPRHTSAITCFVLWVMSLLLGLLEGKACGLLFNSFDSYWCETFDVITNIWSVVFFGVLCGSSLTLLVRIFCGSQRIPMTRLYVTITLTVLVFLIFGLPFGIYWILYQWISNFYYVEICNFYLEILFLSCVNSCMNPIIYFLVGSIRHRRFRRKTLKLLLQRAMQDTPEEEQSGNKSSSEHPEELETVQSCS
# Experimental: Therefore, we investigated whether the new MRGPRX2 antagonists could also block MRGPRB2. To this end, we used recombinant 1321N1 astrocytoma cells that stably expressed MRGPRB2, employing Ca^2+ assays, and CST-14 as MRGPRX2/MRGPRB2 agonist (EC80 value of 2000 nM).[31]
# For MRGPRB2, the pKi values of the compounds were determined using 1321N1 astrocytoma cells recombinantly expressing MRGPRB2 using Ca^2+ assays versus the MRGPRX2/MRGPRB2 agonist CST-14 (EC80 value, 2000 nM). For MRGPRX2, pKi values were determined using Ca^2+ assays performed in LN229 cells recombinantly overexpressing MRGPRX2 versus the agonist CST-14 (EC80 value, 800 nM). b Concentration-response curve of PSB-172656 in Ca^2+ assays using 1321N1 astrocytoma cells expressing MRGPRB2 versus CST-14 (EC80 value, 2000 nM), Ki value 0.302 ± 0.039 nM. Data are generated from 3 biological replicates, determined in duplicates. c A representative trace showing the effect of C48/80 (30 µg/mL) on a mouse tracheal ring in isometric force measurements using a wire-myograph system. d The contraction response of mouse trachea to C48/80 (30 µg/mL) was normalized to the contraction caused by methacholine (10 µM), a muscarinic receptors agonist. […]
smiles,measurement,setting,value
"CCc1c(C(C)C)[nH]c2nc3cc(F)c(F)cc3n2c1=O [Compound 24, 3-ethyl-7,8-difluoro-2-isopropylbenzo[4,5]imidazo [1,2-a] pyrimidin-4(1H)-one]",effect on C48/80-induced paw swelling,[1],significant decrease in paw swelling; also recorded: prevents or reduces edema formation
same,CC50 at 72 h,[2],> 10000 nM
same,"cytotoxicity at 72 h, 10000 nM","[2]; up to 10,000 nM, read-out: Cytotoxicity % effect",41%
same,fold less potent at MRGPRB2 than at human MRGPRX2,mouse MRGPRB2; Ca2+ assays,3 fold
same,Ki,mouse MRGPRB2; versus CST-14 (EC80 2000 nM),0.302 nM
